Assay results published in patent publication US8044089B2, “3-3-di-substituted-oxindoles as inhibitors of translation initiation” (President and Fellows of Harvard College, priority 2004, dated 2011).
Like-named read-outs stand apart in the source and are kept apart here.

Columns and labels:
eIF2α = eIF2α phosphorylation measured by Western blot; assay type: cell-based; settings: for eIF2α-P (phosphorylation of eIF2α measured by Western blot): unit or reference not given
In short: (§1)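 Ca2+ release scored in FURA-2AM loaded cells as "+" (release) or "+/−" (inconclusive); some compounds also tested with ER-targeted FRET Ca2+ sensors. Ca2+-depleting compounds were then tested for eIF2α phosphorylation by Western blot with phospho-specific anti-eIF2α antibody.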

[1] = test system: intracellular Ca^2+ stores; assay: Ca2+ release from intracellular stores (FURA-2AM loaded cells); assay type: cell-based; parameters: key to Ca^2+ (Ca^2+ release from intracellular stores): a “+” denotes release; a “+/−” denotes inconclusive
In short: as §1

A549 lung cancer cells = assay: SRB growth inhibition of A549 lung cancer cells; assay type: cell-based, human
[2] = Plasma levels after oral administration (LC-MS); assay type: in vivo; settings: mouse, DBA/2J mice
Description: (§2) Ternary complex assay was 8-fold over DMSO at 20 μM, and cell growth was inhibited at <1 μM. The plasma levels for this in mice were estimated using liquid chromatography and mass spectrometry (LC-MS). Compound 1430 was orally administered at 160 mg/kg, 240 mg/kg, and 320 mg/kg to DBA/2J mice and the plasma concentration was measured at three time points, one hour, three hours, and six hours, and is set forth in Table 15. The plasma was isolated from the mice by heart-lung puncture and the samples were processed and analyzed by LC-MS. The concentrations at each time and dose are in nmoles/mL of plasma (n.d.=not detected; X=not determined).

[3] = test system: ternary complex in transgenic KLN cells; assay: Ternary complex assay; assay type: cell-based; settings: at 20 μM, over DMSO
Description: FIGS. 3A-3C depict compound 1181 activity. (A) depicts the drug induced phosphorylation of eIF2α protein in control (lane 1), positive control (lane 2) and 1181 (lane 3) measured using Western blot analysis.
as §2

[4] = A549 lung cancer cells, unit inferred, read-out: SRB (IC50 for growth inhibition of A549 lung cancer cells)

Row | Compound | eIF2α-P (phosphorylation of eIF2α measured by Western blot) (eIF2α) | Ca^2+ (Ca^2+ release from intracellular stores) [1] | IC50 (A549 lung cancer cells; [4]) | other results
1 | COc1ccccc1C1(c2ccc(C(C)(C)C)cc2)C(=O)Nc2ccccc21 (centres unmarked) [Compound 1237] | 1.3 | + | 17 µM | 
2 | CC(C)(C)c1ccc(O)c(C2(c3ccccc3)C(=O)Nc3ccc(Br)cc32)c1 (centres unmarked) [Compound 1211] | 1.14 | + | 3 µM | 
3 | CC(C)(C)c1ccc(O)c(C2(c3ccccc3)C(=O)Nc3c(C(F)(F)F)cccc32)c1 (centres unmarked) [Compound 1230] | 0.41 | +/− | 3 µM | 
4 | O=C1Nc2ccc(Cl)cc2C1(c1ccccc1)c1ccccc1 [Compound 1206] | 1.58 | + | 9 µM | 
5 | Cc1cc(C2(c3ccccc3)C(=O)Nc3c(C(=O)O)cccc32)c(NC(=O)OCC2c3ccccc3-c3ccccc32)cc1O (centres unmarked) [Compound 1394] | 8.21 | + | 9 µM | 
6 | CCCCCc1ccc(O)c(C2(c3ccccc3)C(=O)Nc3ccccc32)c1 (centres unmarked) [Compound 1286] | 8.60 | + | 3 µM | 
7 | CCCCc1ccc(O)c(C2(c3ccccc3)C(=O)Nc3ccccc32)c1 (centres unmarked) [Compound 1287] | 10.08 | + | 3 µM | 
8 | COc1ccc2c(c1)C(c1ccccc1)(c1cc(C(C)(C)C)ccc1O)C(=O)N2 (centres unmarked) [Compound 1214] | 1.62 | + | 6 µM | 
9 | CC(C)(C)c1ccc(O)c(C2(c3cccc(Cl)c3)C(=O)Nc3ccccc32)c1 (centres unmarked) [Compound 1221] | 3.24 | + | 3 µM | 
10 | Cc1cc(C2(c3ccccc3)C(=O)Nc3ccccc32)c(NS(=O)(=O)c2cccc(C(F)(F)F)c2)cc1O (centres unmarked) [Compound 1514] | 1.65 | + | 3 µM | 
11 | CC(C)(C)c1ccc(O)c(C2(c3ccccc3)C(=O)Nc3ccc(I)cc32)c1 (centres unmarked) [Compound 1213] | 2 | +/− | 3 µM | 
12 | Cc1cc(C2(c3ccccc3)C(=O)Nc3ccccc32)c(NS(=O)(=O)c2ccc(C(C)(C)C)cc2)cc1O (centres unmarked) [Compound 1430, 4-tert-butyl-N-[5-hydroxy-4-methyl-2-(2-oxo-3-phenyl-2,3-dihydro-1H-indol-3-yl)-phenyl]-benzenesulfonamide] | 4.8 | + |  | concentration at 1 h ([2]; oral 160 mg/kg): 5.7 µM; concentration at 3 h ([2]; oral 160 mg/kg): 3.8 µM; concentration at 1 h ([2]; oral 240 mg/kg): 6.8 µM; concentration at 3 h ([2]; oral 240 mg/kg): 4 µM; concentration at 1 h ([2]; oral 320 mg/kg): 14 µM; concentration at 3 h ([2]; oral 320 mg/kg): 3.8 µM; concentration at 6 h ([2]; oral 320 mg/kg, 6 hours): 2.8 µM; Ternary complex assay over DMSO [3]: 8 fold; increase in eIF2α phosphorylation over DMSO (eIF2α; at 5 μM, over DMSO): 5 fold; IC50 (A549 lung cancer cells; Homo sapiens, A549, read-out: cell growth was inhibited at): < 1 µM; IC50 (A549 lung cancer cells; Homo sapiens, A549 lung cancer cells, unit inferred, read-out: SRB (IC50 for growth inhibition of A549 lung cancer cells)): 0.9 µM
13 | CCCCCCCc1ccc(O)c(C2(c3ccccc3)C(=O)Nc3ccccc32)c1 (centres unmarked) [Compound 1279] | 3.49 | +/− | 3 µM | 
14 | CCc1ccc2c(c1)NC(=O)C2(c1ccccc1)c1cc(C(C)(C)C)ccc1O (centres unmarked) [Compound 1258] | 3.13 | + | 4 µM | 
15 | O=C1Nc2cc(Br)ccc2C1(c1ccccc1)c1ccccc1 [Compound 1273] | 1.72 | + | 6 µM | eIF2α phosphorylation (in words) (eIF2α): none of the compounds exhibited an increase in eIF2α phosphorylation relative to compound 1392
16 | CC(C)(C)c1ccc(O)c(C2(c3ccccc3)C(=O)Nc3cccc(Br)c32)c1 (centres unmarked) [Compound 1234] | 2.57 | + | 6 µM | 
17 | CCc1cccc2c1C(c1ccccc1)(c1cc(C(C)(C)C)ccc1O)C(=O)N2 (centres unmarked) [Compound 1257] | 1.11 | + | 10 µM | 
